According to patent US10342796B2, “Acrylanilide derivative, preparation method, and applications thereof in pharmacy” (Ancureall Pharmaceutical (Shanghai) Co., Ltd., priority 2015, dated 2019):
Where two headings read alike, the source gives them in different places.

How the values were obtained:
Test in all cases: Growth inhibition GI50 in vitro (CCK8/MTT, 72 h)
[1] = test system: H1975 (EGFR L858R/T790M); type: cell-based, human; settings: Homo sapiens, NCI-H1975
[2] = test system: HCC827 (EGFR dE746-A750); type: cell-based, human; settings: Homo sapiens
[3] = test system: PC-9 (EGFR dE746-A750); type: cell-based, human; settings: Homo sapiens
[4] = test system: PC-9ER (EGFR delE746-A750/T790M); type: cell-based, human; settings: Homo sapiens, PC-9/ER; EGFR mutant cell line; range of GI50; read-out: GI50 PC9ER
[5] = test system: N87 (HER2 Amp); type: cell-based, human; settings: Homo sapiens
[6] = test system: AU565 (Her2 amp); type: cell-based, human; settings: Homo sapiens
[7] = test system: SK-BR-3 (Her2 amp); type: cell-based, human; settings: Homo sapiens
[8] = test system: Calu-3 (Her2 amp); type: cell-based; settings: Homo sapiens
[9] = test system: H292 (EGFR WT); type: cell-based; settings: Homo sapiens, NCI-H292
[10] = test system: A431 (EGFR WT, amplification and high expression); type: cell-based, human; settings: Homo sapiens, A-431
[11] = test system: A549 (EGFR WT); type: cell-based, human; settings: Homo sapiens
[12] = test system: H1299 (EGFR wt, Nras Q61K); type: cell-based, human; settings: Homo sapiens, NCI-H1299
[13] = test system: H460 (EGFR wt, Kras G61H); type: cell-based, human; settings: Homo sapiens, NCI-H460
[14] = EGFR mutant cell line, range of GI50, read-out: GI50 H1975
[15] = Table 15, 1000 nM to 0.03 nM serial dilution, read-out: GI50 H1975 (EGFR L858R/T790M)
[16] = HCC827, EGFR mutant cell line, range of GI50, read-out: GI50 HCC827
[17] = EGFR mutant cell line, range of GI50, read-out: GI50 PC-9
[18] = Table 15, 1000 nM to 0.03 nM serial dilution, read-out: GI50 PC-9 (EGFR dE746-A750)
[19] = HER2 positive cell line, range of GI50, read-out: GI50 N87
[20] = Table 16, 1000 nM to 0.03 nM serial dilution, read-out: GI50 N87 (HER2 amp)
[21] = AU565, HER2 positive cell line, range of GI50, read-out: GI50 AU-565
[22] = SK-BR-3, HER2 positive cell line, range of GI50, read-out: GI50 SK-BR-3
[23] = Calu-3, Table 16, 1000 nM to 0.03 nM serial dilution, read-out: GI50 Calu3 (HER2 amp)
[24] = Table 15, 1000 nM to 0.03 nM serial dilution, read-out: GI50 H292 (EGFR WT)
[25] = EGFR wild type cell line, range of GI50, read-out: GI50 A431
[26] = A549, EGFR wild type cell line, range of GI50, read-out: GI50 A549
[27] = A549, Table 15, 1000 nM to 0.03 nM serial dilution, read-out: GI50 A549 (EGFR WT)
[28] = EGFR wild type cell line, range of GI50, read-out: GI50 H1299
[29] = EGFR wild type cell line, range of GI50, read-out: GI50 H460
[30] = H1975, EGFR L858R/T790M, read-out: GI50
[31] = HCC827, EGFR dE746-A750, read-out: GI50
[32] = PC-9, EGFR dE746-A750, read-out: GI50
[33] = N87, EGFR wt, Her2 amp, read-out: GI50
[34] = AU565, EGFR wt, Her2 amp, read-out: GI50
[35] = SK-BR-3, EGFR wt, Her2 amp, read-out: GI50
[36] = Calu-3, EGFR wt, Her2 amp, read-out: GI50
[37] = A549, EGFR wt, Kras G12S, read-out: GI50
[38] = H1299, EGFR wt, Nras Q61K, read-out: GI50
[39] = H460, EGFR wt, Kras G61H, read-out: GI50

| Structure (SMILES) | GI50 [1, 14] [µM] | GI50 [1, 15] [µM] | GI50 [2, 16] [µM] | GI50 [3, 17] [µM] | GI50 [3, 18] [µM] | GI50 [4] [µM] | GI50 [5, 19] [µM] | GI50 [5, 20] [µM] | GI50 [6, 21] [µM] | GI50 [7, 22] [µM] | GI50 [8, 23] [µM] | GI50 [10, 25] [µM] | GI50 [1, 30] [µM] | GI50 [2, 31] [µM] | GI50 [3, 32] [µM] | GI50 [5, 33] [µM] | GI50 [6, 34] [µM] | GI50 [8, 36] [µM] | GI50 ([9]; H292, EGFR wt, read-out: GI50) [µM] | GI50 ([10]; A431, EGFR wt, read-out: GI50) [µM] | also measured |
| --- | --- | --- | --- | --- | --- | --- | --- | --- | --- | --- | --- | --- | --- | --- | --- | --- | --- | --- | --- | --- | --- |
| C=CC(=O)Nc1cc(Nc2cc(Nc3cc(OC)c(Cl)cc3Cl)ncn2)c(OC)cc1N(C)CCN(C)C [Compound 136, N-(5-(6-(2,4-dichloro-5-methoxyl-phenylamino)-pyrimidin-4-ylamino)-2-((2-dimethylamino-ethyl)-methyl-amino)-4-methoxyl-phenyl)-acrylamide] | 0.01 to 0.1 | 0.0101 | 0.01 to 0.1 | 0.01 to 0.1 | 0.0105 | < 0.01 | 0.01 to 0.1 | 0.0112 | 0.01 to 0.1 | 0.01 to 0.1 | 0.0147 | 0.1 to 1 |  |  |  |  |  |  |  |  | GI50 [9, 24]: > 1 µM; GI50 [11, 26]: > 1 µM; GI50 [11, 27]: > 1 µM; GI50 [12, 28]: > 1 µM; GI50 [13, 29]: > 1 µM |
| C=CC(=O)Nc1cc(Nc2ncc(Cl)c(Nc3ccc(OCc4ccccn4)c(Cl)c3)n2)c(OC)cc1N(C)CCN(C)C [Compound 19, N-(5-(5-chloro-4-(3-chloro-4-(pyridin-2-methoxyl)phenylamino)-pyrimidin-2-ylamino)-2-((2-(dimethylamino)ethyl)(methyl)amino)-4-methoxyl-phenyl)-acrylamide] | < 0.01 |  | < 0.01 | < 0.01 |  | < 0.01 | 0.01 to 0.1 |  | 0.01 to 0.1 | 0.01 to 0.1 |  | 0.1 to 1 | 0.0049 | 0.0064 | 0.0073 | 0.0195 | 0.0175 | 0.0195 | > 1 | 0.625 | GI50 [7, 35]: 0.0391 µM; GI50 [11, 26]: > 1 µM; GI50 [11, 37]: 0.978 µM; GI50 [12, 28]: > 1 µM; GI50 [12, 38]: > 1 µM; GI50 [13, 29]: > 1 µM; GI50 [13, 39]: > 1 µM |
| C=CC(=O)Nc1cc(Nc2nccc(-c3cn(C)c4ccccc34)n2)c(OC)cc1N(C)CCN(C)C [AZD9291, reference compound] |  | 0.0156 |  |  | 0.0139 |  |  | 0.219 |  |  | 0.657 |  | 0.0156 | 0.0156 | 0.0139 | 0.234 | 0.312 | 0.686 | > 1 | […] | GI50 ([7]; SK-BR-3): 0.643 µM; GI50 [9, 24]: > 1 µM; GI50 [11, 27]: > 1 µM; GI50 [11, 37]: > 1 µM; GI50 [12, 38]: > 1 µM; GI50 [13, 39]: > 1 µM |
| C=CC(=O)Nc1cc(Nc2nccc(Nc3cccc(Cl)c3)n2)c(OC)cc1N(C)CCN(C)C [Compound 2, N-(5-(4-(3-chloro-phenylamino)-pyrimidin-2-ylamino)-2-(2-(dimethylamino-ethyl)-methyl-amino)-4-methoxyl-phenyl)-acrylamide] | 0.01 to 0.1 |  | < 0.01 | < 0.01 |  | < 0.01 | < 0.01 |  | 0.01 to 0.1 | 0.01 to 0.1 |  | 0.1 to 1 | 0.0146 | 0.0023 | 0.0054 | 0.01 | 0.0154 | 0.0312 | > 1 | 0.156 | GI50 [7, 35]: 0.0195 µM; GI50 [11, 26]: > 1 µM; GI50 [11, 37]: > 1 µM; GI50 [12, 28]: > 1 µM; GI50 [12, 38]: > 1 µM; GI50 [13, 29]: > 1 µM; GI50 [13, 39]: > 1 µM |
| C=CC(=O)Nc1cc(Nc2ncnc(Nc3cccc(Br)c3)n2)c(OC)cc1N1CCC(N2CCCC2)CC1 [Compound 118] | < 0.01 |  | < 0.01 | < 0.01 |  | < 0.01 | < 0.01 |  | < 0.01 | 0.01 to 0.1 |  | 0.1 to 1 | 0.0094 | 0.0023 | 0.00238 | 0.0048 | 0.0048 | 0.0146 | > 1 | 0.156 | GI50 [7, 35]: 0.0292 µM |
| C=CC(=O)Nc1cc(Nc2cc(Nc3cc(F)c(OC)c(Cl)c3)ncn2)c(OC)cc1N(C)CCN(C)C [Compound 236, N-(5-(6-(3-chloro-5-fluoro-4-methoxyphenylamino)-pyrimidin-4-yl-amino)-2-((2-dimethylamino-ethyl)-methyl-amino)-4-methoxyl-phenyl)-acrylamide] |  | 0.00388 |  |  | 0.00149 |  |  | 0.00082 |  |  | 0.00146 |  |  |  |  |  |  |  |  |  | GI50 ([1]; Table 13, 72 h, read-out: Range of GI50 H1975 (EGFR L858R/T790M)): < 0.01 µM; GI50 ([3]; Table 13, 72 h, read-out: Range of GI50 PC-9 (EGFR dE746-A750)): < 0.01 µM; GI50 ([5]; Table 13, 72 h, read-out: Range of GI50 N87 (HER2 Amp)): < 0.01 µM; GI50 [9, 24]: > 1 µM; GI50 ([11]; A549, Table 13, 72 h, read-out: Range of GI50 A549 (EGFR WT)): > 1 µM; GI50 [11, 27]: > 1 µM |
